# Measurements taken from ChEMBL document CHEMBL1156005, “Non-nucleoside inhibitors of HCV polymerase NS5B. Part 3: synthesis and optimization studies of benzothiazine-substituted tetramic acids” (Bioorg Med Chem Lett, 2009).
# Assays:
# [1] = target: Cytochrome P450 3A4 (Homo sapiens, UniProt P08684); assay: Inhibition of CYP3A4 by time dependent inactivation assay; assay type: ADME
# [2] = test system: Hepatitis C virus; assay: Antiviral activity against HCV 1b infected in human 2209-23 cells assessed as inhibition of virus RNA replication by renilla luciferase reporter gene assay; assay type: functional, organism-based, Hepacivirus hominis; conditions: genotype 1b
# [3] = Oral bioavailability in rat; assay type: ADME, organism-based; conditions: in vivo
# [4] = Metabolic stability in rat liver microsomes; assay type: ADME, Microsome; conditions: read-out: Stability
# [5] = Clearance in rat at 2 mg/kg, iv; assay type: ADME, organism-based; design: dose 2 mg/kg, route intravenous; conditions: in vivo
# [6] = AUC in rat at 5 mg/kg; assay type: ADME, organism-based; design: dose 5 mg/kg; conditions: plasma
# [7] = test system: Hepatitis C virus; assay: Ratio of EC50 for HCV 1a over EC50 for HCV 1b
# [8] = Cytotoxicity against human 2209-23 cells assessed as […] by WST-1 assay; assay type: cell-based
# [9] = target: Genome polyprotein (Hepatitis C virus genotype 1b (isolate Con1) (HCV), UniProt Q9WMX2); assay: Inhibition of […] 1b con1 NS5B polymerase assessed as [3H]UTP incorporation into acid insoluble RNA product
# Genome polyprotein, sequence (Q9WMX2 2420-3010 limits assumed): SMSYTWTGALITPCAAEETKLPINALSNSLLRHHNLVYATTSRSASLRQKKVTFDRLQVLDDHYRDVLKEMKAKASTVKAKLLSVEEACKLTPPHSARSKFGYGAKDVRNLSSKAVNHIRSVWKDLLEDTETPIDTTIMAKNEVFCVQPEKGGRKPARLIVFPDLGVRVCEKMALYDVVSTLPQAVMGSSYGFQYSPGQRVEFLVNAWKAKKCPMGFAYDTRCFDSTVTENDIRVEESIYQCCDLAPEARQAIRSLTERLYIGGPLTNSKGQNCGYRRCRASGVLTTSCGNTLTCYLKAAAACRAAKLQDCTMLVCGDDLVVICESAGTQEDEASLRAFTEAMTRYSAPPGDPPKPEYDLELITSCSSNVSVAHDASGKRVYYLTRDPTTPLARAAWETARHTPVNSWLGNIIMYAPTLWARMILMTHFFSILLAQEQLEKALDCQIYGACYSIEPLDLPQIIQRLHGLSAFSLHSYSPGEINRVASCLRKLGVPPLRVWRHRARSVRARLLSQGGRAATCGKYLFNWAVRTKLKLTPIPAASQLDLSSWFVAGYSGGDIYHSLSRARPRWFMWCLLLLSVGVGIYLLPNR
# [10] = test system: Hepatitis C virus; assay: Antiviral activity against HCV 1b infected in human 2209-23 cells assessed as inhibition of virus RNA replication by renilla luciferase reporter gene assay in presence of 5% fetal bovine serum; assay type: functional, organism-based, Hepacivirus hominis; conditions: genotype 1b
# [11] = Permeability by PAMPA; assay type: ADME; conditions: read-out: permeability
# [12] = test system: Hepatitis C virus; assay: Selectivity ratio, EC50 for HCV 1b in presence of 40% human serum to EC50 for HCV 1b in presence of 5% fetal bovine serum; assay type: functional, Hepacivirus hominis, genotype 1b
# [13] = Tmax in po dosed rat; assay type: ADME, organism-based; conditions: in vivo
# [14] = test system: Hepatitis C virus; assay: Antiviral activity against HCV 1b infected in human 2209-23 cells assessed as inhibition of virus RNA replication by renilla luciferase reporter gene assay in presence of 40% human serum; assay type: functional, organism-based, Hepacivirus hominis; conditions: genotype 1b
# [15] = test system: Caco-2; assay: Efflux ratio of permeability from […] side in human Caco-2 cells after 21 days; assay type: ADME, cell-based; conditions: caco-2, 504 h
# Cytochrome P450 3A4, sequence (P08684 whole entry): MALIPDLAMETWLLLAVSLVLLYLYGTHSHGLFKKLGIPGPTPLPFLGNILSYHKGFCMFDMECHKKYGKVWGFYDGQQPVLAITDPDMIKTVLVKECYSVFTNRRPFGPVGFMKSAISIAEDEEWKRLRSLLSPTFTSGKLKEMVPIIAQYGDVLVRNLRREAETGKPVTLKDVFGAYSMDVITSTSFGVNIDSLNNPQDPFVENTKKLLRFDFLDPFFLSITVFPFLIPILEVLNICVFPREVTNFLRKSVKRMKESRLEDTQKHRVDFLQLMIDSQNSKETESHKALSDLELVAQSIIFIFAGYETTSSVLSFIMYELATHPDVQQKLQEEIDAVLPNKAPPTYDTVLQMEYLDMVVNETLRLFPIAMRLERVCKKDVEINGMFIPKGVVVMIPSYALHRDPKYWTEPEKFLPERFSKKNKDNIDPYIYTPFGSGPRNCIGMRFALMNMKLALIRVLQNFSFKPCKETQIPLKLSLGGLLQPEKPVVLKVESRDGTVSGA
SMILES,inhibition (INH) [1] [%],EC50 [2] [nM],bioavailability [3] [%],microsomal CLint [4] [µL/min/mg],clearance [5] [mL/min/kg],AUC [6] [ng·h/mL],Ratio EC50 [7],CC50 [8] [nM],IC50 [9] [nM],EC50 [10] [nM],Papp [11] [×10⁻⁶ cm/s],Ratio EC50 [12],Tmax [13] [h],EC50 [14] [nM],Ratio [15]
CC(C)(C)[C@H]1C(O)=C(C2=CS(=O)(=O)c3cc(NS(C)(=O)=O)ccc3N2)C(=O)N1Cc1ccc(F)cc1,41,5,22,32,101,189,4,> 50000,7,12,1.4,2.7,1.3,33,25
CC(C)(C)[C@H]1C(O)=C(C2=C(C(N)=O)S(=O)(=O)c3cc(NS(C)(=O)=O)ccc3N2)C(=O)N1Cc1ccc(F)cc1,17.8,16,,,5,,4,> 50000,11,,,,,,
COc1cc(CN2C(=O)C(C3=CS(=O)(=O)c4cc(NS(C)(=O)=O)ccc4N3)=C(O)[C@@H]2C(C)(C)C)ccc1F,,,,,,,,> 50000,4,28,,15.1,,422,
CC(C)(CO)[C@H]1C(O)=C(C2=CS(=O)(=O)c3cc(NS(C)(=O)=O)ccc3N2)C(=O)N1Cc1ccc(F)cc1,20.5,,,,,,,,,,,,,,
CC(C)(C)[C@H]1C(O)=C(C2=CS(=O)(=O)c3cc(NS(C)(=O)=O)ccc3N2)C(=O)N1Cc1ccc(F)cc1F,,,,,,,4,> 50000,13,35,,6.5,,226,
CC(C)(C)[C@H]1C(O)=C(C2=CS(=O)(=O)c3cc(NS(C)(=O)=O)ccc3N2)C(=O)N1Cc1ccc(F)cn1,,,,,,,,> 50000,42,201,,8.5,,1720,
CC(C)(C)[C@H]1C(O)=C(C2=CS(=O)(=O)c3cc([N+](=O)[O-])ccc3N2)C(=O)N1Cc1ccc(F)cc1,0.4,16500,,,,,,> 50000,1800,,,,,,
CC(=O)C1=C(C2=C(O)[C@H](C(C)(C)C)N(Cc3ccc(F)cc3)C2=O)Nc2ccc(NS(C)(=O)=O)cc2S1(=O)=O,15.1,20,,,,,,> 50000,4,,,,,,
CC(C)(C)[C@H]1C(O)=C(C2=CS(=O)(=O)c3cc(C#N)ccc3N2)C(=O)N1Cc1ccc(F)cc1,10.9,6850,,,,,,> 50000,1200,,,,,,
CC(C)(C)[C@H]1C(O)=C(C2=CS(=O)(=O)c3cc(NS(C)(=O)=O)ccc3N2)C(=O)N1Cc1ccc(F)c(Cl)c1,41,,,84,86,,,> 50000,5,9,0.98,18.1,,163,
CC(C)(C)[C@H]1C(O)=C(C2=C(C#N)S(=O)(=O)c3cc(NS(C)(=O)=O)ccc3N2)C(=O)N1Cc1ccc(F)cc1,24.7,16,,,,,4,> 50000,6,,,,,,
CC(C)CCN1C(=O)C(C2=CS(=O)(=O)c3cc(NS(C)(=O)=O)ccc3N2)=C(O)[C@@H]1C(C)(C)C,,,,,,,,> 50000,5,30,,22,,660,
Cc1cc(CN2C(=O)C(C3=CS(=O)(=O)c4cc(NS(C)(=O)=O)ccc4N3)=C(O)[C@@H]2C(C)(C)C)ccc1F,39,,,327,101,,4,> 50000,3,12,1.62,10.2,,122,
CC(C)(C)CCN1C(=O)C(C2=CS(=O)(=O)c3cc(NS(C)(=O)=O)ccc3N2)=C(O)[C@@H]1C(C)(C)C,23,,,79,> 100,,,> 50000,8,16,1.8,4.1,,65,14
CC(C)(C)[C@H]1C(O)=C(C2=CS(=O)(=O)c3cc(F)ccc3N2)C(=O)N1Cc1ccc(F)cc1,7.6,1870,,,,,,> 50000,338,,,,,,
CC(C)(C)[C@@H]1NC(=O)C(C2=CS(=O)(=O)c3cc(NS(C)(=O)=O)ccc3N2)=C1O,5.7,,,,,,,,,,,,,,
CC(C)(C)[C@H]1C(O)=C(C2=C(Cl)S(=O)(=O)c3cc(NS(C)(=O)=O)ccc3N2)C(=O)N1Cc1ccc(F)cc1,31,4,,,,,,> 50000,2,,,,,,
CC1=C(C2=C(O)[C@H](C(C)(C)C)N(Cc3ccc(F)cc3)C2=O)Nc2ccc(NS(C)(=O)=O)cc2S1(=O)=O,21.9,78,,,,,,> 50000,10,,,,,,
CCC(C)(C)[C@H]1C(O)=C(C2=CS(=O)(=O)c3cc(NS(C)(=O)=O)ccc3N2)C(=O)N1Cc1ccc(F)c(C)c1,,24,,,,,,,,,,,,,
CC(C)(C)[C@H]1C(O)=C(C2=CS(=O)(=O)c3cc(NS(C)(=O)=O)ccc3N2)C(=O)N1Cc1ccccc1,19,,,,144,,4,> 50000,8,32,1.8,4.3,,139,11
CC(C)(C)[C@H]1C(O)=C(C2=CS(=O)(=O)c3cc(NS(C)(=O)=O)cc(F)c3N2)C(=O)N1Cc1ccc(F)cc1,8.5,36,,,36,,4,> 50000,9,,,,,,
